Measurements published in US12642865B2, “Toroidal mixed nanoparticle, method for preparing the same, and method for multifunctional delivery using the same” (China Medical University, priority 2022, dated 2026).

Tests used:
[1] = Hepatic and renal functional evaluation (serum); assay type: in vivo, mice; conditions: after 16 d
Source text: To investigate the efficacy of tumor inhibition, HCT116-cell-bearing 4-week-old female Balb-c/nude mice whose tumor sizes were up to 500 mm^3 were separated into 3 groups and each group contained 5 mice. […] The tumor size and weight were monitored every 2 to 3 days for 16-days post-injection. At day 16 post-injection, the mice were all euthanized, and their blood was collected. Meanwhile, the tumor and liver of mice were collected. The tumors were photographed after excluding the extreme ones. The blood samples were centrifugated under 3000 RPM for 10 min to obtain the serum samples for hepatic and renal functional evaluations. The hepatic function was assessed by the aspartate aminotransferase (AST) and alanine aminotransferase (ALT) values; the function of the kidneys was evaluated with the index of blood urea nitrogen (BUN) and creatinine.

[2] = system: HCT116-cell-bearing Balb-c/nude mice; experiment: Histopathological analysis (H&E) of tumors and organs; assay type: in vivo; conditions: Day 16; control: livers, lungs, and spleens
Experimental: The tumors and livers harvested from mice were preserved in 4% formalin overnight and the tumor and livers were embedded in paraffin to form paraffin tissue blocks. Afterwards, the tissues were sliced into 5-μm thick sections using a microtome (Leica RM 2145, Leica, Wetzlar, Germany). These sections were stained with H & E. The histopathological analysis was performed using an optical microscope (Optiphot-2, Nikon, Tokyo, Japan).

NC1CCCCC1N.[Cl][Pt][Cl] (centres unmarked) [DACHPt, dichloro(1,2-diaminocyclohexane)platinum(II)]
hepatic functional index ALT [1]: 40 ± 3 U/L | hepatic functional index AST [1]: 134 ± 29 U/L | renal functional index BUN [1]: 32.9 ± 9.3 mg/dL | renal functional index Creatinine [1]: 0.44 ± 0.05 mg/dL | tumor metastasis in organs (H&E sections) [2]: only observed in lungs
